Series [1] is described as follows: Volume of distribution in Mycobacterium tuberculosis H37Rv. Type of series: ADME, organism-based. Particulars: in vivo.
Series [2] in a line: Elimination rate constant in Mycobacterium tuberculosis H37Rv. Type of series: ADME.
The nature of series [3]: Absorption rate constant in Mycobacterium tuberculosis H37Rv. The format is ADME.
A short description of series [4]: Clearance in Mycobacterium tuberculosis H37Rv. Type of series: ADME.
In series [5] the test system is Mycobacterium tuberculosis. Briefly: Antimycobacterial activity against Mycobacterium tuberculosis H37Rv isolated from patient with tuberculosis assessed as bacterial load per day at >= 15 mg/kg, po after 4 days. The format is functional.
For series [6], the system named is Mycobacterium tuberculosis. The experiment in a line: Antimycobacterial activity against Mycobacterium tuberculosis H37Rv isolated from patient with tuberculosis assessed as bacterial load per day at 15 to 30 mg/kg, po after 2.5 to 3 weeks. The format is functional.
Series [7] has as its system Mycobacterium tuberculosis. The experiment in a line: Antimycobacterial activity against Mycobacterium tuberculosis H37Rv isolated from patient with tuberculosis at >= 15 mg/kg, po after 14 to 21 days. Type of series: functional, organism-based. On the set-up: dose 15 mg/kg.
Series [8] is described as follows: Ratio of AUC (0 to 24 hrs) to MIC associated with 0.5 log10CFU/ml bacterial count in patient infected with Mycobacterium tuberculosis H37Rv. The format is functional.
Series [9] is described as follows: Ratio of AUC (0 to 24 hrs) to MIC associated with 1 log10CFU/ml bacterial count in patient infected with Mycobacterium tuberculosis H37Rv. Type of series: functional.
A short description of series [10]: Ratio of AUC (0 to 24 hrs) to MIC associated with 2 log10CFU/ml bacterial count in patient infected with Mycobacterium tuberculosis H37Rv. The format is functional.

Structures are written as SMILES. Active and inactive are the calls of the source. The calls are words filed in the database; no cut-off is given here.

Usually Vd stands for the apparent volume that relates the amount in the body to the concentration in plasma or blood. Higher therefore signals wide distribution into tissue. Broadly, the clearance is the rate of elimination divided by the concentration. Higher therefore signals a high capacity for elimination. Regarding `NC(=O)c1cnccn1` [PYRAZINAMIDE], in series [1], the Vd is 1.68 L/kg. The molecule also gave a k el in series [2] of 1.67e-05 s⁻¹. In series [3], this molecule had a Ka of 3.45 h⁻¹. The molecule also had a clearance in series [4] of 1.67 mL/min/kg. For the same molecule, the log10CFU/ml/day in [5] worked out at 0.05; in series [6] it was 0.09. For the same molecule, the outcome in [7] was inactive. Also, the log10CFU/ml came out at 9.43 in series [8], 20.26 in series [9] and 66.67 in [10].

The values above are taken from ChEMBL document CHEMBL1649539, “Pharmacokinetics-pharmacodynamics of pyrazinamide in a novel in vitro model of tuberculosis for sterilizing effect: a paradigm for faster assessment of new antituberculosis drugs” (Antimicrob Agents Chemother, 2009).
